In US11571423B2, “Small molecule modulators of human sting” (Curadev Pharma Limited, priority 2017, dated 2023):
Where a name gives a salt, the structure may show the parent alone.

Molecular target: hSTING(R232) (Homo sapiens, UniProt Q86WV6, H232R)
Assay: Luciferase reporter assay in HEK293T-hSTING-Luciferase cells, R232 (wild type) human STING
Format: cell-based
Settings: 20 hr stimulation, read-out: R232 human activity (EC50 range)
In short: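 Clonal HEK293T cells stably expressing STING from a pUNO-1 plasmid plus an ISRE/ISG54-driven secreted luciferase reporter; 5×10^5 cells stimulated with compound for 20 hr. Supernatant luciferase read by luminescence, giving fold-induction over baseline and EC50.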

Sequence of hSTING(R232) (Q86WV6 whole entry H232R): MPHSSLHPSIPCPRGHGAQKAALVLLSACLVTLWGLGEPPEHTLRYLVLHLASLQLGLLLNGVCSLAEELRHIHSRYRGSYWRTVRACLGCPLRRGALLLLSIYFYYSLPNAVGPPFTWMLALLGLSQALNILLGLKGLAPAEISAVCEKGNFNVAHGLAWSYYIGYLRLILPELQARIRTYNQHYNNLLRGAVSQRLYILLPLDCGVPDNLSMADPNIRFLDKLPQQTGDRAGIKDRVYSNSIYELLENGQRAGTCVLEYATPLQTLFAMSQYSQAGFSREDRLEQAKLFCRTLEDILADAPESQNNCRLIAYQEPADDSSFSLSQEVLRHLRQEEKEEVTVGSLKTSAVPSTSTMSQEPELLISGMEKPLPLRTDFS

| SMILES | EC50 |
| --- | --- |
| CC1c2ccc(C(=O)NCc3c(F)cc(F)cc3F)cc2N(Cc2cc(OCC(=O)O)ccc2F)C(=O)N1C (stereo not shown) [Example 229, 2-(3-((3,4-dimethyl-2-oxo-7-((2,4,6-trifluorobenzyl)carbamoyl)-3,4-dihydroquinazolin-1(2H)-yl)methyl)-4-fluorophenoxy)acetic acid] | > 10000 nM |
| CC1c2ccc(C(=O)NCc3c(F)cc(F)cc3F)cc2N(Cc2ccc(OCCO)cc2F)C(=O)N1C (stereo not shown) [Example 230, 1-(2-fluoro-4-(2-hydroxyethoxy)benzyl)-3,4-dimethyl-2-oxo-N-(2,4,6-trifluorobenzyl)-1,2,3,4-tetrahydroquinazoline-7-carboxamide] | < 1000 nM |
| CC1c2ccc(C(=O)NCc3c(F)cc(F)cc3F)cc2N(Cc2cc(OCCO)ccc2F)C(=O)N1C (stereo not shown) [Example 233, 1-(2-fluoro-5-(2-hydroxyethoxy)benzyl)-3,4-dimethyl-2-oxo-N-(2,4,6-trifluorobenzyl)-1,2,3,4-tetrahydroquinazoline-7-carboxamide] | < 1000 nM |
| CC1c2ccc(C(=O)NCc3c(F)cc(F)cc3F)cc2N(Cc2c(F)cccc2OCC(=O)O)C(=O)N1C (stereo not shown) [Example 234, 2-(2-((3,4-dimethyl-2-oxo-7-((2,4,6-trifluorobenzyl)carbamoyl)-3,4-dihydroquinazolin-1(2H)-yl)methyl)-3-fluorophenoxy)acetic acid] | > 10000 nM |
| CC1c2ccc(C(=O)NCc3c(F)cc(F)cc3F)cc2N(Cc2c(F)cccc2OCCO)C(=O)N1C (stereo not shown) [Example 236, 1-(2-fluoro-6-(2-hydroxyethoxy)benzyl)-3,4-dimethyl-2-oxo-N-(2,4,6-trifluorobenzyl)-1,2,3,4-tetrahydroquinazoline-7-carboxamide] | < 1000 nM |
| CC1c2ccc(C(=O)NCc3ccc(OCC(=O)O)cc3)cc2N(Cc2c(F)cccc2Cl)C(=O)N1C (stereo not shown) [Example 240, 2-(4-((1-(2-chloro-6-fluorobenzyl)-3,4-dimethyl-2-oxo-1,2,3,4-tetrahydroquinazoline-7-carboxamido)methyl)phenoxy)acetic acid] | > 10000 nM |
| C[C@H]1c2ccc(C(=O)NCc3c(F)cc(F)cc3F)cc2N(Cc2c(OCC(=O)O)ccc(F)c2F)C(=O)N1C [Example 244, (S)-2-(2-((3,4-dimethyl-2-oxo-7-((2,4,6-trifluorobenzyl)carbamoyl)-3,4-dihydroquinazolin-1(2H)-yl)methyl)-3,4-difluorophenoxy)acetic acid] | < 1000 nM |
| COc1cccc(F)c1CNC(=O)c1ccc2c(c1)N(Cc1c(F)cccc1Cl)C(=O)N(C)[C@H]2C [Example 245, (S)-1-(2-chloro-6-fluorobenzyl)-N-(2-fluoro-6-methoxybenzyl)-3,4-dimethyl-2-oxo-1,2,3,4-tetrahydroquinazoline-7-carboxamide] | 1000 to 10000 nM |
| COc1cc(F)ccc1CNC(=O)c1ccc2c(c1)N(Cc1c(F)cccc1Cl)C(=O)N(C)[C@H]2C [Example 247, (S)-1-(2-chloro-6-fluorobenzyl)-N-(4-fluoro-2-methoxybenzyl)-3,4-dimethyl-2-oxo-1,2,3,4-tetrahydroquinazoline-7-carboxamide] | 1000 to 10000 nM |
| COc1cc(F)cc(CNC(=O)c2ccc3c(c2)N(Cc2c(F)cccc2Cl)C(=O)N(C)[C@H]3C)c1 [Example 248, (S)-1-(2-chloro-6-fluorobenzyl)-N-(3-fluoro-5-methoxybenzyl)-3,4-dimethyl-2-oxo-1,2,3,4-tetrahydroquinazoline-7-carboxamide] | 1000 to 10000 nM |
| COc1cccc(CNC(=O)c2ccc3c(c2)N(Cc2c(F)cccc2Cl)C(=O)N(C)[C@H]3C)c1F [Example 249, (S)-1-(2-chloro-6-fluorobenzyl)-N-(2-fluoro-3-methoxybenzyl)-3,4-dimethyl-2-oxo-1,2,3,4-tetrahydroquinazoline-7-carboxamide] | 1000 to 10000 nM |
| C[C@H]1c2ccc(C(=O)NCc3cc(O)cc(F)c3)cc2N(Cc2c(F)cccc2Cl)C(=O)N1C [Example 250, (S)-1-(2-chloro-6-fluorobenzyl)-N-(3-fluoro-5-hydroxybenzyl)-3,4-dimethyl-2-oxo-1,2,3,4-tetrahydroquinazoline-7-carboxamide] | < 1000 nM |

Continued, values first:

| EC50 | SMILES |
| --- | --- |
| 1000 to 10000 nM | C[C@H]1c2ccc(C(=O)NCc3c(O)cccc3F)cc2N(Cc2c(F)cccc2Cl)C(=O)N1C [Example 251, (S)-1-(2-chloro-6-fluorobenzyl)-N-(2-fluoro-6-hydroxybenzyl)-3,4-dimethyl-2-oxo-1,2,3,4-tetrahydroquinazoline-7-carboxamide] |
| 1000 to 10000 nM | C[C@H]1c2ccc(C(=O)NCc3ccc(F)cc3O)cc2N(Cc2c(F)cccc2Cl)C(=O)N1C [Example 253, (S)-1-(2-chloro-6-fluorobenzyl)-N-(4-fluoro-2-hydroxybenzyl)-3,4-dimethyl-2-oxo-1,2,3,4-tetrahydroquinazoline-7-carboxamide] |
| > 10000 nM | C[C@H]1c2ccc(C(=O)NCc3cc(F)cc(OCCO)c3)cc2N(Cc2c(F)cccc2Cl)C(=O)N1C [Example 266, (S)-1-(2-chloro-6-fluorobenzyl)-N-(3-fluoro-5-(2-hydroxyethoxy)benzyl)-3,4-dimethyl-2-oxo-1,2,3,4-tetrahydroquinazoline-7-carboxamide] |
| < 1000 nM | C[C@H]1c2ccc(C(=O)NCc3cccc(O)c3F)cc2N(Cc2c(F)cccc2Cl)C(=O)N1C [Example 267, (S)-1-(2-chloro-6-fluorobenzyl)-N-(2-fluoro-3-hydroxybenzyl)-3,4-dimethyl-2-oxo-1,2,3,4-tetrahydroquinazoline-7-carboxamide] |
| 1000 to 10000 nM | C[C@H]1c2ccc(C(=O)NCc3c(F)cc(F)cc3F)cc2N(Cc2c(F)cccc2NC(=O)CN)C(=O)N1C [Example 272, (S)-1-(2-(2-aminoacetamido)-6-fluorobenzyl)-3,4-dimethyl-2-oxo-N-(2,4,6-trifluorobenzyl)-1,2,3,4-tetrahydroquinazoline-7-carboxamide dihydrochloride] |
| 1000 to 10000 nM | C[C@H]1c2ccc(C(=O)NCc3c(F)cc(F)cc3F)cc2N(Cc2cc(O)c(O)cc2F)C(=O)N1C [Example 274, (S)-1-(2-fluoro-4,5-dihydroxybenzyl)-3,4-dimethyl-2-oxo-N-(2,4,6-trifluorobenzyl)-1,2,3,4-tetrahydroquinazoline-7-carboxamide] |
| > 10000 nM | C[C@H]1c2ccc(C(=O)NCc3cccc(OCCO)c3F)cc2N(Cc2c(F)cccc2Cl)C(=O)N1C [Example 276, (S)-1-(2-chloro-6-fluorobenzyl)-N-(2-fluoro-3-(2-hydroxyethoxy)benzyl)-3,4-dimethyl-2-oxo-1,2,3,4-tetrahydroquinazoline-7-carboxamide] |
| > 10000 nM | C[C@H]1c2ccc(C(=O)NCc3c(F)cc(F)cc3F)cc2N(Cc2c(F)cc(OCC(=O)O)cc2F)C(=O)N1C [Example 277, (S)-2-(4-((3,4-dimethyl-2-oxo-7-((2,4,6-trifluorobenzyl)carbamoyl)-3,4-dihydroquinazolin-1(2H)-yl)methyl)-3,5-difluorophenoxy)acetic acid] |
| < 1000 nM | C[C@H]1c2ccc(C(=O)NCc3c(F)cc(F)cc3F)cc2N(Cc2c(F)cccc2NCCCO)C(=O)N1C [Example 278, (S)-1-(2-fluoro-6-((3-hydroxypropyl)amino)benzyl)-3,4-dimethyl-2-oxo-N-(2,4,6-trifluorobenzyl)-1,2,3,4-tetrahydroquinazoline-7-carboxamide] |
| < 1000 nM | COc1cccc(CN2C(=O)N(C)[C@@H](C)c3ccc(C(=O)NCc4c(F)cc(F)cc4F)cc32)c1F [Example 279, (S)-1-(2-fluoro-3-methoxybenzyl)-3,4-dimethyl-2-oxo-N-(2,4,6-trifluorobenzyl)-1,2,3,4-tetrahydroquinazoline-7-carboxamide] |
| < 1000 nM | C[C@H]1c2ccc(C(=O)NCc3c(F)cc(F)cc3F)cc2N(Cc2c(F)cc(OCCCN)cc2F)C(=O)N1C [Example 280, (S)-1-(4-(3-aminopropoxy)-2,6-difluorobenzyl)-3,4-dimethyl-2-oxo-N-(2,4,6-trifluorobenzyl)-1,2,3,4-tetrahydroquinazoline-7-carboxamide] |
| > 10000 nM | C[C@H]1c2ccc(C(=O)NCc3ccc(F)cc3OCCO)cc2N(Cc2c(F)cccc2Cl)C(=O)N1C [Example 284, (S)-1-(2-chloro-6-fluorobenzyl)-N-(4-fluoro-2-(2-hydroxyethoxy)benzyl)-3,4-dimethyl-2-oxo-1,2,3,4-tetrahydroquinazoline-7-carboxamide] |
| > 10000 nM | C[C@H]1c2ccc(C(=O)NCc3c(F)cc(F)cc3F)cc2N(Cc2c(Cl)c[nH]c(=O)c2F)C(=O)N1C [Example 287, (S)-1-((5-chloro-3-fluoro-2-oxo-1,2-dihydropyridin-4-yl)methyl)-3,4-dimethyl-2-oxo-N-(2,4,6-trifluorobenzyl)-1,2,3,4-tetrahydroquinazoline-7-carboxamide] |
| 1000 to 10000 nM | C[C@H]1c2ccc(C(=O)NCc3c(F)cc(F)cc3F)cc2N(Cc2c(Cl)cn(C)c(=O)c2F)C(=O)N1C [Example 288, (S)-1-((5-chloro-3-fluoro-1-methyl-2-oxo-1,2-dihydropyridin-4-yl)methyl)3,4-dimethyl-2-oxo-N-(2,4,6-trifluorobenzyl)-1,2,3,4-tetrahydroquinazoline-7-carboxamide] |
| < 1000 nM | C[C@H]1c2ccc(C(=O)NCc3c(F)cc(F)cc3F)cc2N(Cc2c(F)cc(OCCN)cc2F)C(=O)N1C [Example 292, (S)-1-(4-(2-aminoethoxy)-2,6-difluorobenzyl)-3,4-dimethyl-2-oxo-N-(2,4,6-trifluorobenzyl)-1,2,3,4-tetrahydroquinazoline-7-carboxamide hydrochloride] |
| > 10000 nM | C[C@H]1c2ccc(C(=O)NCc3c(F)cc(F)cc3F)cc2N(Cc2c(Cl)cn(CCO)c(=O)c2F)C(=O)N1C [Example 297, (S)-1-((5-chloro-3-fluoro-1-(2-hydroxyethyl)-2-oxo-1,2-dihydropyridin-4-yl)methyl)-3,4-dimethyl-2-oxo-N-(2,4,6-trifluorobenzyl)-1,2,3,4-tetrahydroquinazoline-7-carboxamide] |
